Reference: ChEMBL document CHEMBL1201862, “PubChem BioAssay data set” (2004)
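Protocol summary: plate cells (96-well), add compound at 5 concentrations, incubate 48 h, interpolate endpoints linearly. GI50 = concentration required for 50% inhibition of growth.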 The source made the active and inactive calls. No stated cut-off is given here; in the data, active = GI50 up to about 1.1 µM and inactive = higher.

Tests used:
Assay in all cases: inhibition of tumour cell growth, NCI panel, 48 h
HOP-62 = test system: HOP-62
T47D = test system: T47D
SF-295 = test system: SF-295
MOLT-4 = test system: MOLT-4
PC-3 = test system: PC-3
CCRF-CEM = test system: CCRF-CEM
A549 = test system: A549
OVCAR-8 = test system: OVCAR-8
SW-620 = test system: SW-620
MDA-MB-231 = test system: MDA-MB-231
MDA-MB-435 = test system: MDA-MB-435
NCI/ADR-RES = test system: NCI/ADR-RES
MCF7 = test system: MCF7
IGROV-1 = test system: IGROV-1
SK-MEL-2 = test system: SK-MEL-2
786-0 = test system: 786-0
SF-539 = test system: SF-539
ACHN = test system: ACHN
UO-31 = test system: UO-31
HCT-116 = test system: HCT-116

Measured: GI50

CC(C)c1ccc(C(c2c(O)oc3ccccc3c2=O)c2c(O)oc3ccccc3c2=O)cc1
inactive: HOP-62 21.4 µM | T47D 31.2 µM | SF-295 20 µM | MOLT-4 6.55 µM | PC-3 19 µM | CCRF-CEM 11.6 µM | A549 19.1 µM | OVCAR-8 19.1 µM | SW-620 17.1 µM | MDA-MB-231 21.4 µM | MDA-MB-435 20.4 µM | NCI/ADR-RES 22.3 µM | MCF7 27.9 µM | IGROV-1 24.8 µM | SK-MEL-2 14.5 µM | 786-0 21.1 µM | SF-539 21.8 µM | ACHN 26.2 µM | UO-31 13.8 µM | HCT-116 17 µM

C=C(C)C1CC2=C(C(=O)OC)C=C(O2)C(C(=C)C)[C@@H]2OC(=O)/C(=C\C1O)[C@H]2N(C)C (stereo partly specified)
inactive: HOP-62 19.4 µM | T47D 11.7 µM | SF-295 17.5 µM | PC-3 11.4 µM | CCRF-CEM 1.6 µM | A549 13.9 µM | OVCAR-8 10.9 µM | SW-620 7.33 µM | MDA-MB-231 21.5 µM | MDA-MB-435 9.44 µM | NCI/ADR-RES 8.07 µM | MCF7 5.92 µM | IGROV-1 6.04 µM | SK-MEL-2 13 µM | 786-0 8.05 µM | SF-539 7.4 µM | ACHN 11.7 µM | UO-31 13.4 µM | HCT-116 13.8 µM

COc1cc(OC)cc(Oc2nc3c(N)cc(C(F)(F)F)cc3nc2-c2ccccc2)c1
inactive: HOP-62 > 100 µM | T47D 3.14 µM | SF-295 49.5 µM | MOLT-4 9.27 µM | PC-3 26.2 µM | CCRF-CEM 12.8 µM | OVCAR-8 46.3 µM | SW-620 28.5 µM | MDA-MB-231 28.9 µM | MDA-MB-435 11.4 µM | NCI/ADR-RES 52.6 µM | MCF7 8.93 µM | IGROV-1 21.8 µM | SK-MEL-2 20 µM | 786-0 55.1 µM | SF-539 99.3 µM | ACHN 28.5 µM | UO-31 > 100 µM | HCT-116 22.6 µM

N#CC(N)c1ccc(OCCCCCCCCCCOc2ccc(C(N)C#N)cc2)cc1 (stereo unspecified)
inactive: T47D 84.1 µM | SF-295 > 100 µM | MOLT-4 18.6 µM | PC-3 > 100 µM | CCRF-CEM 13.8 µM | A549 > 100 µM | OVCAR-8 44.3 µM | SW-620 > 100 µM | MDA-MB-231 > 100 µM | MDA-MB-435 > 100 µM | NCI/ADR-RES 27.8 µM | MCF7 > 100 µM | IGROV-1 > 100 µM | SK-MEL-2 81.8 µM | 786-0 > 100 µM | SF-539 > 100 µM | ACHN > 100 µM | UO-31 > 100 µM | HCT-116 80 µM

COc1cc2ccc(C(=O)NCCCNC(=O)c3ccc4cc(OC)c(OC)cc4c3)cc2cc1OC
inactive: HOP-62 > 100 µM | T47D > 100 µM | SF-295 > 100 µM | PC-3 > 100 µM | CCRF-CEM > 100 µM | A549 > 100 µM | OVCAR-8 > 100 µM | SW-620 > 100 µM | MDA-MB-231 97.1 µM | MDA-MB-435 > 100 µM | NCI/ADR-RES > 100 µM | MCF7 > 100 µM | IGROV-1 > 100 µM | SK-MEL-2 > 100 µM | 786-0 > 100 µM | SF-539 53.3 µM | ACHN > 100 µM | UO-31 > 100 µM | HCT-116 > 100 µM

C=Cc1nc(C#N)c(N)o1
inactive: HOP-62 > 100 µM | T47D > 100 µM | SF-295 > 100 µM | MOLT-4 > 100 µM | PC-3 > 100 µM | CCRF-CEM > 100 µM | A549 > 100 µM | OVCAR-8 > 100 µM | SW-620 > 100 µM | MDA-MB-231 > 100 µM | MDA-MB-435 > 100 µM | NCI/ADR-RES > 100 µM | MCF7 > 100 µM | IGROV-1 > 100 µM | SK-MEL-2 > 100 µM | 786-0 > 100 µM | SF-539 > 100 µM | UO-31 > 100 µM | HCT-116 > 100 µM

Cc1cc(O)c2c(c1O)C(=O)c1c(O)ccc(O)c1C2=O [Cynodontin]
inactive: HOP-62 > 100 µM | T47D > 100 µM | SF-295 > 100 µM | MOLT-4 > 100 µM | PC-3 > 100 µM | CCRF-CEM > 100 µM | A549 > 100 µM | OVCAR-8 > 100 µM | SW-620 > 100 µM | MDA-MB-231 > 100 µM | MDA-MB-435 > 100 µM | NCI/ADR-RES > 100 µM | MCF7 > 100 µM | IGROV-1 > 100 µM | SK-MEL-2 > 100 µM | 786-0 82 µM | SF-539 > 100 µM | ACHN > 100 µM | HCT-116 > 100 µM

O=C(Nc1nncs1)NS(=O)(=O)n1cnc2ccccc21
inactive: HOP-62 > 100 µM | T47D > 100 µM | SF-295 > 100 µM | MOLT-4 > 100 µM | PC-3 > 100 µM | CCRF-CEM > 100 µM | A549 > 100 µM | OVCAR-8 > 100 µM | SW-620 > 100 µM | MDA-MB-231 > 100 µM | MDA-MB-435 > 100 µM | NCI/ADR-RES > 100 µM | MCF7 > 10 µM | IGROV-1 > 100 µM | SK-MEL-2 > 100 µM | 786-0 > 100 µM | SF-539 > 100 µM | ACHN > 100 µM | HCT-116 > 100 µM

C=C1[C@@H]([C@@]2(C)C=CC(=O)C(C)(C)[C@@H]2CC(=O)OC)CC[C@@]2(C)[C@H](c3ccoc3)OC(=O)[C@H]3O[C@]132 [ANDIROBIN]
inactive: T47D 94.4 µM | SF-295 87.5 µM | MOLT-4 83.6 µM | PC-3 40.7 µM | CCRF-CEM > 100 µM | A549 > 100 µM | OVCAR-8 > 100 µM | SW-620 > 100 µM | MDA-MB-231 > 100 µM | MDA-MB-435 > 100 µM | NCI/ADR-RES > 100 µM | MCF7 > 100 µM | IGROV-1 > 100 µM | SK-MEL-2 > 100 µM | 786-0 > 100 µM | SF-539 > 100 µM | ACHN > 100 µM | UO-31 73.8 µM | HCT-116 > 100 µM

CC(C)[Si](OC1=CCCCCC12C(=O)N(C)c1ccccc12)(C(C)C)C(C)C (stereo unspecified)
inactive: HOP-62 21.6 µM | T47D 2.88 µM | SF-295 13.5 µM | MOLT-4 32.5 µM | PC-3 25.5 µM | CCRF-CEM 17.1 µM | A549 19.8 µM | OVCAR-8 21 µM | SW-620 17.3 µM | MDA-MB-231 22.4 µM | MDA-MB-435 25.1 µM | NCI/ADR-RES 18.8 µM | MCF7 16.9 µM | IGROV-1 25.1 µM | SK-MEL-2 18.2 µM | 786-0 17.7 µM | SF-539 22.5 µM | ACHN 16.8 µM | UO-31 21.3 µM
